Patent publication US20100158866A1, “PREDICTION OF HCV TREATMENT RESPONSE” (priority 2008, published 2010)

Legend:
HCV genotype 1 [1] = assay: Phase 2A clinical trial of RO4588161 with Pegasys with or without ribavirin: HCV RNA viral load and viral response (Roche COBAS TaqMan HCV Test); type: in vivo, human; conditions: for mean change in viral concentrations (HCV RNA) from baseline at week 4: 4 weeks
Text: (§1) This was a phase 2A, multi-center, randomized, double-blinded (RO4588161 and ribavirin were double-blinded and Pegasys was open labeled), active-controlled, with a parallel-group study which is ongoing. A screening period (time from the first screening assessment to the first administration of test drug) of 35 days preceded the treatment portion of the trial (FIG. 1). The HCV genotype and HCV RNA titer of each patient was confirmed during the screening period and only treatment-naïve patients with HCV genotype-1 and HCV RNA titer […] were eligible for enrollment.
One hundred and seven male and female patients between 18 and 66 years of age were enrolled into the study. Patients were randomized into four treatment groups: • Group A/Dual 1500 [RO4588161 1500 mg oral, twice daily+Pegasys 180 μg subcutaneous, once weeky] for 4 weeks-21 patients, • Group B/Dual 3000 [RO4588161 3000 mg oral, twice daily+Pegasys 180 μg subcutaneous, once weekly] for 4 weeks-34 patients, • Group C/Triple 1500 [RO4588161 1500 mg oral, twice daily+Pegasys 180 μg subcutaneous, once weekly+ribavirin 1000 mg (<75 kg) or 1200 mg […] oral daily] for 4 weeks-31 patients or • Group D/standard of care (SOC) [Pegasys 180 μg subcutaneous, once weekly+ribavirin 1000 mg (<75 kg) or 1200 mg (≧75 kg) oral daily] for 4 weeks-21 patients
Patients meeting all eligibility criteria were randomized to receive RO4588161 in combination with Pegasys with or without ribavirin for 4 weeks or to SOC.
All patients who received at least one dose of study medication would continue to receive open label Pegasys 180 μg sc qw and ribavirin 1000 mg (<75 kg) or 1200 mg (≧75 kg) po qd to complete a total treatment period of 48 weeks.
Randomization was stratified by the PK subcohort (sparse PK versus intensive PK) in a 2:3:3:2 ratio into the following treatment groups (Group A/Dual 1500˜20, Group B/Dual 3000˜30, Group C/Triple 1500˜30, Group D/SOC˜20).
All patients were to have a safety follow up visit at week 8, 4 weeks after the last dose of the experimental drug combination. Patients were to have this 4 week safety follow up visit during their treatment with the standard of care therapy. Patients who have completed a full 48-week course of therapy were followed for 24 weeks post treatment completion.
Pharmacodynamic analysis included the assessment of serum viral load, and viral response at individual clinical visits and an assessment of antiviral resistance development with RO4588161 given in combination with Pegasys with or without ribavirin in treatment naïve patients with chronic HCV genotype 1 virus infection. Viral response was defined as the percentage of patients with undetectable HCV RNA as measured by the Roche COBAS TaqMan HCV Test (<15 IU/mL). Pharmacodynamic data were presented by listings, summary statistics (including means, medians, standard errors, confidence intervals for means, ranges, coefficients of variation, proportions of patients with response and confidence intervals for proportions) and plots of means over time.

[2] = Phase 2A clinical trial of RO4588161: premature withdrawal for safety reasons; type: in vivo, human
Text: as §1
One hundred and seven male and female patients between 18 and 66 years of age were enrolled into the study. Patients were randomized into four treatment groups: • Group A/Dual 1500 [RO4588161 1500 mg oral, twice daily+Pegasys 180 μg subcutaneous, once weeky] for 4 weeks-21 patients, • Group B/Dual 3000 [RO4588161 3000 mg oral, twice daily+Pegasys 180 μg subcutaneous, once weekly] for 4 weeks-34 patients, • Group C/Triple 1500 [RO4588161 1500 mg oral, twice daily+Pegasys 180 μg subcutaneous, once weekly+ribavirin 1000 mg (<75 kg) or 1200 mg […] oral daily] for 4 weeks-31 patients or • Group D/standard of care (SOC) [Pegasys 180 μg subcutaneous, once weekly+ribavirin 1000 mg (<75 kg) or 1200 mg (≧75 kg) oral daily] for 4 weeks-21 patients […]

HCV genotype 1 [3] = assay: Phase II clinical trial of RO5024048 with Pegasys and ribavirin: plasma HCV RNA; type: in vivo, human
Text: Twenty-five (25) patients per Cohort of RO5024048 were enrolled. Twenty (20) patients per cohort received RO5024048 in combination with standard of care (SOC) and five (5) patients per cohort were randomized to receive SOC with a RO5024048 placebo. Patients were screened up to 56 days prior to enrollment. On Day −1, patients visited the clinic for pre-dose assessments. On Day 1, patients received an oral dose of study drug RO5024048 or placebo and Pegasys/ribovarin in the morning with a light meal and at least 240 mL of water.
A majority of dosing occurred on an outpatient basis. Periodically, patients returned to the clinic for study assessments. Early morning on Days 7, 14, 21, and 28, patients were asked to report to the clinic after an overnight fast. Patients received their RO5024048/placebo in combination with Pegasys and Ribovarin with a light meal and 240 mL of water in the morning in the clinic. Patients were followed through Day 56 (28 days after dosing is completed).
After completing four weeks of the combination-dosing regimen followed by at least 4 weeks of SOC dosing (RO5024048 washout), all patients were eligible to receive up to 40 weeks, depending upon genotype, of open label standard of care (SOC) dosing with Pegasys plus ribavirin. Genotype 2 or 3 subjects enrolling in Cohort 4 will receive a total of 24 weeks of Pegasys plus ribovarin. An overview of the study design is outlined in Table 1.

HCV = conditions: cited from earlier work
[4] = human, in vivo; cited from earlier work

In the case of `CC(C)C(=O)OC[C@@]1(N=[N+]=[N-])O[C@@H](n2ccc(N)nc2=O)[C@H](OC(=O)C(C)C)[C@@H]1OC(=O)C(C)C` [RO4588161, Isobutyric acid (2R,3S,4R,5R)-5-(4-amino-2-oxo-2H-pyrimidin-1-yl)-2-azido-3,4-bis-isobutyryloxy-tetrahydro-furan-2-ylmethyl ester], the “mean change in viral concentrations (HCV RNA) from baseline at week 4” value (HCV genotype 1 [1]; Dual 1500: RO4588161 1500 mg oral twice daily + Pegasys 180 μg sc once weekly) is reported as −3.6 log10 IU/mL, the “difference in mean change in viral concentrations” value (from here on “difference in mean change”) (HCV genotype 1 [1]; Dual 3000 vs Dual 1500, week 4, printed as 'minus 0.9') is reported as 0.9 log10 IU/mL and the “mean change in viral concentrations (HCV RNA) from baseline at week 4” value (HCV genotype 1 [1]; Triple 1500: RO4588161 1500 mg oral twice daily + Pegasys 180 μg sc once weekly + ribavirin 1000/1200 mg oral daily) is reported as −5.2 log10 IU/mL. For the same compound, the “patients achieving RVR4 (undetectable HCV RNA at four weeks of treatment)” value (HCV genotype 1 [1]; Triple 1500 group (N=31)) was 23 out of the 31, the “patients achieving sustained virological response (SVR) at 24 weeks post treatment completion” value (HCV genotype 1 [1]; Triple 1500 group, of the thirteen patients undetectable at two weeks) was “Eleven” and the “antiviral effect, non-overlapping 95% confidence intervals” value (HCV genotype 1 [1]; Triple 1500 over Dual 1500 and SOC) was “superior antiviral effect”. For the same compound, the “difference in mean change” value (HCV genotype 1 [1]; Triple 1500 vs Dual 1500, week 4, printed as 'minus 1.6') was 1.6 log10 IU/mL, the “difference in mean change” value (HCV genotype 1 [1]; Triple 1500 vs SOC, week 4, printed as 'minus 2.8') was 2.8 log10 IU/mL and the “decrease in the mean HCV RNA (IU/mL) from baseline at week 4” value (HCV genotype 1 [1]; all RO4588161 containing groups (Dual 1500, Dual 3000, Triple 1500), 4 weeks treatment, treatment-naive HCV genotype-1 patients) was ≥ 3.6 log10. For the same compound, the “earliest assessment at which declines in HCV RNA were observed, following the first dose” value (HCV genotype 1 [1]; first assessment) was 72 h, the “plasma viral load following treatment” value (HCV genotype 1 [1]; treatment with RO4588161, Pegasys and ribavirin) was “Dose- and time-dependent decreases” and the “patients who prematurely withdrew for safety reasons from the drug” value ([2]; among the 104 evaluable patients) was 43 patients.
With `CC(C)C(=O)OC[C@H]1O[C@@H](n2ccc(N)nc2=O)[C@](C)(F)[C@@H]1OC(=O)C(C)C` [RO5024048, Isobutyric acid (2R,3R,4R,5R)-5-(4-amino-2-oxo-2H-pyrimidin-1-yl)-4-fluoro-3-isobutyryloxy-4-methyl-tetrahydro-furan-2-ylmethyl ester] the “whether HCV RNA could be detected at Week 8” value (HCV genotype 1 [3]; 1500 mg RO5024048 + Pegasys + ribavirin, patients not undetectable until day 17 (FIG. 4) or day 28 (FIG. 5)) was “mixed”, the “HCV RNA status on day 56 (Week 8)” value (HCV genotype 1 [3]; 1500 mg RO5024048 + Pegasys + ribavirin, patients with undetectable HCV RNA at 14 days of treatment (FIG. 3)) was “all HCV RNA negative” and the “decreases in plasma viral load” value (HCV genotype 1 [3]; four-week treatment, 1500 mg RO5024048 twice daily with SOC dosing of Pegasys and ribavirin, compared with other dose levels) was “most notable decreases”.
For `NC(=O)c1ncn([C@@H]2O[C@H](CO)[C@@H](O)[C@H]2O)n1` [ribavirin, 1-((2R,3R,4S,5R)-3,4-Dihydroxy-5-hydroxymethyl-tetrahydro-furan-2-yl)-1H-[1,2,4]triazole-3-carboxylic acid amide], the “patients who prematurely withdrew for safety reasons from the drug” value ([2]; both, human, in vivo, 4 weeks) is listed as 5 patients, the “patients in whom serum amino transferase levels are reduced to normal” value (HCV; monotherapy) is listed as 40 % of patients and the “effect on serum levels of HCV-RNA” value (HCV; ribavirin monotherapy) is listed as “does not lower”. The “patients with hemolytic anemia requiring dose reduction or discontinuation of ribavirin therapy” value [4] was 10-20 % of patients.
